Results taken from patent US20210059997A1, “PROPHYLACTIC AGENT AND/OR THERAPEUTIC AGENT FOR CATARACT, MEDICINAL COMPOSITION FOR PREVENTING AND/OR TREATING CATARACT, USE OF PPAR ACTIVATOR FOR PRODUCING SAME, AND EYEDROPS” (UNIVERSITY OF FUKUI, priority 2017, published 2021).

Experiments:
Design in all cases: species or system SD rat
[1] = test system: isolated crystalline lenses; assay: Quantitative ex vivo study: ex-vivo diabetic cataract models using galactose-containing media, percentage of opacity by image analysis; conditions: for Percentage of opacity of crystalline lens, Day 6: Day 6 = 3 days after restart of culture with 30 mM galactose and PPAR activator; for Percentage of opacity of crystalline lens, Day 3: Day 3 = 3 days in 30 mM galactose medium, before addition of PPAR activator; for effect on the percentage of opacity of the crystalline lens (conclusion from Table 1): ex vivo, low concentration
Method: In Example 2, effects of each agent were tested with use of ex-vivo diabetic cataract models using galactose-containing media, in a similar manner to Example 1.
(§1) The crystalline lenses were isolated from the right and left eyeballs of a 6-week-old SD rat (available from Sankyo Labo Service Corporation).
(§2) The isolated crystalline lenses were cultured with use of a medium obtained by adding 30 mM of galactose to an M199 medium (available from SIGMA). After that, the crystalline lenses were cultured with use of a medium obtained by adding 30 mM of galactose and a PPAR activator to an M199 medium.
(§3) Specific points in time at which observation was carried out are as follows. Note that the crystalline lenses were cultured with use of an incubator, the internal temperature of which was maintained at 37° C.
First, 3 days after the start of the culture of the crystalline lenses using the medium obtained by adding 30 mM of galactose to an M199 medium (available from SIGMA), the crystalline lenses were removed from the medium and observed by microscopy under a microscope SZX12 (available from Olympas).
After the microscopy, a PPAR activator was added to the medium, and the culture of the crystalline lenses was restarted. 3 days after the restart of the culture, the crystalline lenses were removed from the medium and observed again by microscopy under the microscope SZX12 (available from Olympas). Note that, for the purpose of clarifying the effects of the PPAR activator, control crystalline lenses were cultured again using a medium having no PPAR activators added thereto.
The images obtained by the microscopy were imported into image processing software (Image J), and the number of pixels was analyzed. In this way, the total area of the crystalline lens and the area of the opaque area were calculated. The percentage of opacity of the crystalline lens was calculated using the following equation.
Percentage of opacity of crystalline lens (%)=100×{(area of opaque area of crystalline lens)/(total area of crystalline lens)}

[2] = test system: in-vivo diabetic cataract models raised on galactose feed; assay: In vivo study: in-vivo diabetic cataract models raised on galactose feed, instillation to the eye; conditions: for Percentage of opacity of crystalline lens, Left eye: instillation to left eye four times a day for 1 week, feed containing 25% galactose; for effect on the area of the opaque area of the crystalline lens in vivo (conclusion from Table 2): left eye versus DMSO right eye
Method: In Example 3, effects of each agent were tested with use of in-vivo diabetic cataract models raised on galactose feed.
For the purpose of inducing cataract, a 3-week-old SD rat (available from Sankyo Labo Service Corporation) was raised for 1 week on feed containing 25% galactose. Concurrently, during the feeding period, ophthalmic agents were administered by instillation to both eyes of the rat every day (four times a day). The components of the ophthalmic agents were as follows: dimethyl sulfoxide (DMSO; administered as a control) for the right eye; and DMSO containing a PPAR activator for the left eye. On the last day of the feeding period, the crystalline lenses were isolated from the right and left eyes of the rat, and observed by microscopy.
The type of PPAR activator administered to the left eye and its concentration in Example 3 are as follows.
The total area of the crystalline lens, the area of the opaque area of the crystalline lens, and the percentage of opacity of the crystalline lens were calculated in the same manner as described in Example 2.

[3] = test system: isolated crystalline lenses; assay: Ex vivo study: ex-vivo diabetic cataract models using galactose-containing media (microscopy); conditions: 800 μM PPAR activator added after 3 days in 30 mM galactose M199 medium; observed 3 days after restart of culture (Day 6)
Method: In Example 1, effects of each agent were tested with use of ex-vivo diabetic cataract models using galactose-containing media.
as §1
as §2, with “and 800 μM of” for “and”, “activator (specifically, bezafibrate or fenofibrate)” for “activator”
as §3
First, 3 days after the start of the culture of the crystalline lenses using the medium obtained by adding 30 mM of galactose to an M199 medium (available from SIGMA), the crystalline lenses were removed from the medium and observed by microscopy under a SZX12 microscope (available from Olympas).
After the microscopy, a PPAR activator was added to the medium, and the culture of the crystalline lenses was restarted. […]

SMILES: CC(C)(Oc1ccc(Cl)cc1)C(=O)OCCOC(=O)c1cccnc1 [Etofibrate, 2-[2-(4-chlorophenoxy)-2-methylpropanoyl]oxyethyl pyridine-3-carboxylate]
- Percentage of opacity of crystalline lens, Day 6 ([1]; 25 μM): 25.2%
- Percentage of opacity of crystalline lens, Day 6 ([1]; 100 μM): 3.2%
- Percentage of opacity of crystalline lens, Day 3 ([1]; lens later given 25 μM): 16.8%
- Percentage of opacity of crystalline lens, Day 3 ([1]; lens later given 100 μM): 11.4%
- Percentage of opacity of crystalline lens, Left eye ([2]; 140 mM in DMSO): 42.8%

SMILES: CCOC(=O)C(C)(C)Oc1ccc(Cl)cc1 [Clofibrate, ethyl 2-(4-chlorophenoxy)-2-methylpropanoate]
- Percentage of opacity of crystalline lens, Day 6 ([1]; 25 μM): 27.3%
- Percentage of opacity of crystalline lens, Day 6 ([1]; 100 μM): 5.7%
- Percentage of opacity of crystalline lens, Day 3 ([1]; lens later given 25 μM): 9.7%
- Percentage of opacity of crystalline lens, Day 3 ([1]; lens later given 100 μM): 7.6%

SMILES: CC(C)OC(=O)C(C)(C)Oc1ccc(C(=O)c2ccc(Cl)cc2)cc1 [Fenofibrate, propan-2-yl 2-[4-(4-chlorobenzoyl)phenoxy]-2-methylpropanoate]
- effect on opacity of the cortex of the crystalline lens (microscopy) [3]: have the effect of therapeutic treatment of cataract after its development

SMILES: CC(C)(Oc1ccc(CCNC(=O)c2ccc(Cl)cc2)cc1)C(=O)O [Bezafibrate, 2-[4-[2-[(4-chlorobenzoyl)amino]ethyl]phenoxy]-2-methylpropanoic acid]
- effect on opacity of the cortex of the crystalline lens (microscopy) [3]: have the effect of therapeutic treatment of cataract after its development
- Percentage of opacity of crystalline lens, Day 6 ([1]; 200 μM): 28.0%
- Percentage of opacity of crystalline lens, Day 3 ([1]; lens later given 200 μM): 27.1%

SMILES: CC(C)(Oc1ccc(C2CC2(Cl)Cl)cc1)C(=O)O (stereo not drawn) [Ciprofibrate, 2-[4-(2,2-dichlorocyclopropyl)phenoxy]-2-methylpropanoic acid]
- Percentage of opacity of crystalline lens, Day 6 ([1]; 25 μM): 15.7%
- Percentage of opacity of crystalline lens, Day 6 ([1]; 100 μM): 2.0%
- effect on the percentage of opacity of the crystalline lens (conclusion from Table 1) [1]: have the effect of reducing the percentage of opacity of the crystalline lens even when used at low concentration
- Percentage of opacity of crystalline lens, Day 3 ([1]; lens later given 25 μM): 17.5%
- Percentage of opacity of crystalline lens, Day 3 ([1]; lens later given 100 μM): 16.7%
- Percentage of opacity of crystalline lens, Left eye ([2]; 200 mM in DMSO): 30.2%
- effect on the area of the opaque area of the crystalline lens in vivo (conclusion from Table 2) ([2]; 200 mM in DMSO): have the effect of reducing the area of the opaque area of the crystalline lens in vivo

SMILES: CCc1ccc(CCOc2ccc(CC3SC(=O)NC3=O)cc2)nc1 (stereo not drawn) [Pioglitazone, 5-[[4-[2-(5-ethylpyridin-2-yl)ethoxy]phenyl]methyl]-1,3-thiazolidine-2,4-dione]
- Percentage of opacity of crystalline lens, Left eye ([2]; 200 mM in DMSO): 44.2%
- effect on the area of the opaque area of the crystalline lens in vivo (conclusion from Table 2) ([2]; 200 mM in DMSO): did not show the effect of reducing the area of the opaque area of the crystalline lens in vivo

SMILES: Cc1ccc(C)c(OCCCC(C)(C)C(=O)O)c1 [Gemfibrozil, 5-(2,5-dimethylphenoxy)-2,2-dimethylpentanoicacid]
- Percentage of opacity of crystalline lens, Day 6 ([1]; 0.8 μM): 10.3%
- Percentage of opacity of crystalline lens, Day 6 ([1]; 25 μM): 8.2%
- effect on the percentage of opacity of the crystalline lens (conclusion from Table 1) [1]: have the effect of reducing the percentage of opacity of the crystalline lens even when used at low concentration
- Percentage of opacity of crystalline lens, Day 3 ([1]; lens later given 0.8 μM): 15.4%
- Percentage of opacity of crystalline lens, Day 3 ([1]; lens later given 25 μM): 13.8%
- Percentage of opacity of crystalline lens, Left eye ([2]; 200 mM in DMSO): 40.4%
- effect on the area of the opaque area of the crystalline lens in vivo (conclusion from Table 2) ([2]; 200 mM in DMSO): have the effect of reducing the area of the opaque area of the crystalline lens in vivo

SMILES: CN(CCOc1ccc(CC2SC(=O)NC2=O)cc1)c1ccccn1 (stereo not drawn) [Rosiglitazone, 5-[[4-[2-[methyl(pyridin-2-yl)amino]ethoxy]phenyl]methyl]-1,3-thiazolidine-2,4-dione]
- Percentage of opacity of crystalline lens, Day 6 ([1]; 20 μM): 20.9%
- Percentage of opacity of crystalline lens, Day 6 ([1]; 80 μM): 2.2%
- effect on the percentage of opacity of the crystalline lens (conclusion from Table 1) [1]: have the effect of reducing the percentage of opacity of the crystalline lens even when used at low concentration
- Percentage of opacity of crystalline lens, Day 3 ([1]; lens later given 20 μM): 22.8%
- Percentage of opacity of crystalline lens, Day 3 ([1]; lens later given 80 μM): 15.6%
- Percentage of opacity of crystalline lens, Left eye ([2]; 200 mM in DMSO): 30.6%
- effect on the area of the opaque area of the crystalline lens in vivo (conclusion from Table 2) ([2]; 200 mM in DMSO): have the effect of reducing the area of the opaque area of the crystalline lens in vivo
